# Test results taken from the CheMixHub ionic liquid set.
# ± gives the uncertainty stated by the source.
# Test: xn = mol fraction of the nth substance listed
# Conditions: for electrical conductivity: 101 kPa, frequency 2 MHz; for viscosity: 100 kPa
structure (smiles),measurement,setting,value
O=S(=O)([O-])C(F)(F)F.[Li+] + O=S(=O)([N-]S(=O)(=O)C(F)(F)F)C(F)(F)F.[Li+] + O,electrical conductivity,"318.1 K, x2 = 0.001799, x1 = 0.0005943",1.16 ± 0.012 S/m
same,electrical conductivity,"318.1 K, x2 = 0.005377, x1 = 0.001799",2.87 ± 0.029 S/m
same,electrical conductivity,"318.1 K, x2 = 0.00893, x1 = 0.003054",4.22 ± 0.042 S/m
same,electrical conductivity,"318.1 K, x2 = 0.01246, x1 = 0.004127",5.324 ± 0.053 S/m
same,electrical conductivity,"318.1 K, x2 = 0.01596, x1 = 0.005377",6.231 ± 0.062 S/m
same,electrical conductivity,"318.1 K, x2 = 0.01944, x1 = 0.006623",6.98 ± 0.07 S/m
same,electrical conductivity,"318.1 K, x2 = 0.05129, x1 = 0.0177",9.39 ± 0.094 S/m
same,electrical conductivity,"318.1 K, x2 = 0.08265, x1 = 0.02921",8.25 ± 0.083 S/m
same,electrical conductivity,"318.1 K, x2 = 0.112, x1 = 0.04029",6.46 ± 0.065 S/m
same,electrical conductivity,"318.1 K, x2 = 0.1395, x1 = 0.05129",4.845 ± 0.048 S/m
same,electrical conductivity,"318.1 K, x2 = 0.1654, x1 = 0.06203",3.58 ± 0.036 S/m
same,electrical conductivity,"318.1 K, x2 = 0.1898, x1 = 0.07238",2.631 ± 0.026 S/m
same,electrical conductivity,"318.1 K, x2 = 0.2128, x1 = 0.08265",1.932 ± 0.019 S/m
same,electrical conductivity,"318.1 K, x2 = 0.2345, x1 = 0.0927",1.418 ± 0.014 S/m
same,electrical conductivity,"318.1 K, x2 = 0.2551, x1 = 0.1024",1.04 ± 0.01 S/m
same,electrical conductivity,"318.1 K, x2 = 0.2745, x1 = 0.112",0.76 ± 0.008 S/m
same,viscosity,"318.15 K, x1 = 0.04029, x2 = 0.1114",4.4 ± 0.4 mPa·s
same,viscosity,"318.15 K, x1 = 0.07222, x2 = 0.1893",15.2 ± 1.2 mPa·s
same,viscosity,"318.15 K, x1 = 0.09226, x2 = 0.2336",31.9 ± 2.6 mPa·s
same,viscosity,"318.15 K, x1 = 0.1024, x2 = 0.2553",43.4 ± 3.5 mPa·s
same,viscosity,"318.15 K, x1 = 0.1122, x2 = 0",2.27 ± 0.18 mPa·s
same,viscosity,"318.15 K, x1 = 0.1122, x2 = 0.2745",63 ± 5 mPa·s
same,viscosity,"318.15 K, x1 = 0.1783, x2 = 0",5.3 ± 0.4 mPa·s
same,viscosity,"318.15 K, x1 = 0.2388, x2 = 0",11.1 ± 0.9 mPa·s
same,viscosity,"318.15 K, x1 = 0.2541, x2 = 0",15.9 ± 1.3 mPa·s
same,viscosity,"318.15 K, x1 = 0.2743, x2 = 0",23.9 ± 1.9 mPa·s
same,electrical conductivity,"323 K, x2 = 0.001799, x1 = 0.0005943",1.26 ± 0.013 S/m
same,electrical conductivity,"323 K, x2 = 0.005377, x1 = 0.001799",3.132 ± 0.031 S/m
same,electrical conductivity,"323 K, x2 = 0.00893, x1 = 0.003054",4.612 ± 0.046 S/m
same,electrical conductivity,"323 K, x2 = 0.01246, x1 = 0.004127",5.82 ± 0.058 S/m
same,electrical conductivity,"323 K, x2 = 0.01596, x1 = 0.005377",6.813 ± 0.068 S/m
same,electrical conductivity,"323 K, x2 = 0.01944, x1 = 0.006623",7.629 ± 0.076 S/m
same,electrical conductivity,"323 K, x2 = 0.05129, x1 = 0.0177",10.26 ± 0.1 S/m
same,electrical conductivity,"323 K, x2 = 0.08265, x1 = 0.02921",9.028 ± 0.09 S/m
same,electrical conductivity,"323 K, x2 = 0.112, x1 = 0.04029",7.08 ± 0.071 S/m
same,electrical conductivity,"323 K, x2 = 0.1395, x1 = 0.05129",5.343 ± 0.053 S/m
same,electrical conductivity,"323 K, x2 = 0.1654, x1 = 0.06203",3.97 ± 0.04 S/m
same,electrical conductivity,"323 K, x2 = 0.1898, x1 = 0.07238",2.943 ± 0.029 S/m
same,electrical conductivity,"323 K, x2 = 0.2128, x1 = 0.08265",2.18 ± 0.022 S/m
same,electrical conductivity,"323 K, x2 = 0.2345, x1 = 0.0927",1.616 ± 0.016 S/m
same,electrical conductivity,"323 K, x2 = 0.2551, x1 = 0.1024",1.2 ± 0.012 S/m
same,electrical conductivity,"323 K, x2 = 0.2745, x1 = 0.112",0.884 ± 0.009 S/m
same,electrical conductivity,"328.1 K, x2 = 0.001799, x1 = 0.0005943",1.37 ± 0.014 S/m
same,electrical conductivity,"328.1 K, x2 = 0.005377, x1 = 0.001799",3.4 ± 0.034 S/m
same,electrical conductivity,"328.1 K, x2 = 0.00893, x1 = 0.003054",5.004 ± 0.05 S/m
same,electrical conductivity,"328.1 K, x2 = 0.01246, x1 = 0.004127",6.316 ± 0.063 S/m
same,electrical conductivity,"328.1 K, x2 = 0.01596, x1 = 0.005377",7.39 ± 0.074 S/m
same,electrical conductivity,"328.1 K, x2 = 0.01944, x1 = 0.006623",8.28 ± 0.083 S/m
same,electrical conductivity,"328.1 K, x2 = 0.05129, x1 = 0.0177",11.13 ± 0.11 S/m
same,electrical conductivity,"328.1 K, x2 = 0.08265, x1 = 0.02921",9.803 ± 0.098 S/m
same,electrical conductivity,"328.1 K, x2 = 0.112, x1 = 0.04029",7.716 ± 0.077 S/m
same,electrical conductivity,"328.1 K, x2 = 0.1395, x1 = 0.05129",5.846 ± 0.058 S/m
same,electrical conductivity,"328.1 K, x2 = 0.1654, x1 = 0.06203",4.37 ± 0.044 S/m
same,electrical conductivity,"328.1 K, x2 = 0.1898, x1 = 0.07238",3.27 ± 0.033 S/m
same,electrical conductivity,"328.1 K, x2 = 0.2128, x1 = 0.08265",2.439 ± 0.024 S/m
same,electrical conductivity,"328.1 K, x2 = 0.2345, x1 = 0.0927",1.824 ± 0.018 S/m
same,electrical conductivity,"328.1 K, x2 = 0.2551, x1 = 0.1024",1.36 ± 0.014 S/m
same,electrical conductivity,"328.1 K, x2 = 0.2745, x1 = 0.112",1.017 ± 0.01 S/m
same,viscosity,"328.15 K, x1 = 0.04029, x2 = 0.1114",3.5 ± 0.3 mPa·s
same,viscosity,"328.15 K, x1 = 0.07222, x2 = 0.1893",11.5 ± 0.9 mPa·s
same,viscosity,"328.15 K, x1 = 0.09226, x2 = 0.2336",22.9 ± 1.8 mPa·s
same,viscosity,"328.15 K, x1 = 0.1024, x2 = 0.2553",30.9 ± 2.5 mPa·s
same,viscosity,"328.15 K, x1 = 0.1122, x2 = 0",1.85 ± 0.15 mPa·s
same,viscosity,"328.15 K, x1 = 0.1122, x2 = 0.2745",43.6 ± 3.5 mPa·s
same,viscosity,"328.15 K, x1 = 0.1783, x2 = 0",4.2 ± 0.3 mPa·s
same,viscosity,"328.15 K, x1 = 0.2388, x2 = 0",8.6 ± 0.7 mPa·s
same,viscosity,"328.15 K, x1 = 0.2541, x2 = 0",12.2 ± 1 mPa·s
same,viscosity,"328.15 K, x1 = 0.2743, x2 = 0",18.1 ± 1.5 mPa·s
same,electrical conductivity,"333 K, x2 = 0.001799, x1 = 0.0005943",1.47 ± 0.015 S/m
same,electrical conductivity,"333 K, x2 = 0.005377, x1 = 0.001799",3.66 ± 0.037 S/m
same,electrical conductivity,"333 K, x2 = 0.00893, x1 = 0.003054",5.39 ± 0.054 S/m
same,electrical conductivity,"333 K, x2 = 0.01246, x1 = 0.004127",6.804 ± 0.068 S/m
same,electrical conductivity,"333 K, x2 = 0.01596, x1 = 0.005377",7.97 ± 0.08 S/m
same,electrical conductivity,"333 K, x2 = 0.01944, x1 = 0.006623",8.919 ± 0.089 S/m
same,electrical conductivity,"333 K, x2 = 0.05129, x1 = 0.0177",12 ± 0.12 S/m
same,electrical conductivity,"333 K, x2 = 0.08265, x1 = 0.02921",10.6 ± 0.11 S/m
same,electrical conductivity,"333 K, x2 = 0.112, x1 = 0.04029",8.339 ± 0.083 S/m
same,electrical conductivity,"333 K, x2 = 0.1395, x1 = 0.05129",6.348 ± 0.063 S/m
same,electrical conductivity,"333 K, x2 = 0.1654, x1 = 0.06203",4.78 ± 0.048 S/m
same,electrical conductivity,"333 K, x2 = 0.1898, x1 = 0.07238",3.59 ± 0.036 S/m
same,electrical conductivity,"333 K, x2 = 0.2128, x1 = 0.08265",2.706 ± 0.027 S/m
same,electrical conductivity,"333 K, x2 = 0.2345, x1 = 0.0927",2.041 ± 0.02 S/m
